The target of the test is T1, BRM (Homo sapiens, UniProt P51531).
T1 construct: Western Blot Screen of BRM Degradation in SW1573 Cells; endogenous in cells; host or cells: SW1573 cells
Put plainly: BRM degradation (Dmax and DC50) in SW1573 cells, Western blot screen / In-Cell Western screen. It is filed as cell-based. The conditions noted are these: overnight (18-20 hours) treatment; for Dmax: read-out: Dmax (%)** (% degraded). An outline of the steps: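 Dmax and DC50 were derived from BRM levels normalised to an alpha-tubulin control, measured by chemiluminescent Western blotting of lysates or by PFA-fixed In-Cell Western on LI-COR Odyssey. SW1573 cells received compound overnight (18–20 h, 0.1% DMSO final).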

T1 sequence (P51531 whole entry): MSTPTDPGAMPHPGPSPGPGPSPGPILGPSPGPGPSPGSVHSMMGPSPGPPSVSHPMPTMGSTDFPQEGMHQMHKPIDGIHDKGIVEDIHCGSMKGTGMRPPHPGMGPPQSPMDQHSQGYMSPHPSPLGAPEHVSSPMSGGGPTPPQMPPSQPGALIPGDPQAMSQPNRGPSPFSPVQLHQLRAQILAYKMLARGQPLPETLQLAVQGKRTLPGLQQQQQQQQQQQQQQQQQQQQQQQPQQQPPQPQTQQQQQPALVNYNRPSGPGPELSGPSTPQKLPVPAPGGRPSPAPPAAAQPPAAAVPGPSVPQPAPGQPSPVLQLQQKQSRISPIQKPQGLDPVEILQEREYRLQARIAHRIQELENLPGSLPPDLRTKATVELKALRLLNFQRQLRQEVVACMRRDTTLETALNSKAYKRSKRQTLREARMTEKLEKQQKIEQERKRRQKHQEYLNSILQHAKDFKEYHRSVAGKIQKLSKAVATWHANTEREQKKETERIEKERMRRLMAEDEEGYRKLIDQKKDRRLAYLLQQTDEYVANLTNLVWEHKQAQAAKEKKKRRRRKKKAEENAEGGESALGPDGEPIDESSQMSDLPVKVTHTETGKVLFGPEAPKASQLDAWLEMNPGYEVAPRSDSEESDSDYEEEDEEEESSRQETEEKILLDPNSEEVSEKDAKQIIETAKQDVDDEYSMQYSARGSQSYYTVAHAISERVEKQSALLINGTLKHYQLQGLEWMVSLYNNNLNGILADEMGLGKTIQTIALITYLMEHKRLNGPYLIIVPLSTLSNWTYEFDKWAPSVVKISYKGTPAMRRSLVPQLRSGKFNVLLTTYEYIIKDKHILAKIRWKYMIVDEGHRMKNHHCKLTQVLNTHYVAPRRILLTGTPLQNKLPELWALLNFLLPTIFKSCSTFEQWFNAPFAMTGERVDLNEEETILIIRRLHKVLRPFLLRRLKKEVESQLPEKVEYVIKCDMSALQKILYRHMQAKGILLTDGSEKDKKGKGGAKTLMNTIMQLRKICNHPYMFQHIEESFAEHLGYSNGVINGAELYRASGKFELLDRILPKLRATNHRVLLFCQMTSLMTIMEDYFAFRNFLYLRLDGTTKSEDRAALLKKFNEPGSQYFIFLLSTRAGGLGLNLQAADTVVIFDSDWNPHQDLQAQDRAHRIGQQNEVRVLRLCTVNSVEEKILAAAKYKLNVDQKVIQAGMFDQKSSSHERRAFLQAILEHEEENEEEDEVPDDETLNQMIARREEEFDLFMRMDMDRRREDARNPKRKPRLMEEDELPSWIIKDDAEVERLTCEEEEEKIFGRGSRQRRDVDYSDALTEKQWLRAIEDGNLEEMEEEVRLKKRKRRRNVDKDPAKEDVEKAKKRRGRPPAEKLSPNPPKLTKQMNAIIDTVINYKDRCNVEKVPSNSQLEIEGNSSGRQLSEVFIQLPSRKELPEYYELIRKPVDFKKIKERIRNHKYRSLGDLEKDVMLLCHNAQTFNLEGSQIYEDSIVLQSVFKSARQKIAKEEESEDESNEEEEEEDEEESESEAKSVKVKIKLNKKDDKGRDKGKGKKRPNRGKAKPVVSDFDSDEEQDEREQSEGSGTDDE

For `Cc1ncsc1-c1ccc([C@H](C)NC(=O)[C@@H]2C[C@@H](O)CN2C(=O)[C@H](c2cc(N3CCC(OC(=O)N4CCC(Oc5cc(N6C7CCC6CN(c6cc(-c8ccccc8O)nnc6N)C7)ccn5)CC4)CC3)no2)C(C)C)cc1` [Compound 131, 1-(5-((S)-1-((2S,4R)-4-hydroxy-2-(((S)-1-(4-(4-methylthiazol-5-yl)phenyl)ethyl)carbamoyl)pyrrolidin-1-yl)-3-methyl-1-oxobutan-2-yl)isoxazol-3-yl)piperidin-4-yl 4-((4-(3-(3-amino-6-(2-hydroxyphenyl)pyridazin-4-yl)-3,8-diazabicyclo[3.2.1]octan-8-yl)pyridin-2-yl)oxy)piperidine-1-carboxylate], the DC50 is ≥ 30 nM.
Turning to `Cc1ncsc1-c1ccc([C@H](C)NC(=O)[C@@H]2C[C@@H](O)CN2C(=O)[C@@H](c2cc(N3CCC(CN4CCC(O[C@H]5C[C@H](N6CCO[C@H](CN7C8CCC7CN(c7cc(-c9ccccc9O)nnc7N)C8)C6)C5)CC4)CC3)no2)C(C)C)cc1` [Compound 23, (2S,4R)-4-hydroxy-N-[(1S)-1-[4-(4-methyl-1,3-thiazol-5-yl)phenyl]ethyl]-1-[(2R)-3-methyl-2-{3-[4-({4-[(1r,3r)-3-[(2S)-2-({3-[3-amino-6-(2-hydroxyphenyl)pyridazin-4-yl]-3,8-diazabicyclo[3.2.1]octan-8-yl}methyl)morpholin-4-yl]cyclobutoxy]piperidin-1-yl}methyl)piperidin-1-yl]-1,2-oxazol-5-yl}butanoyl]pyrrolidine-2-carboxamide], the DC50 is < 2.5 nM and the Dmax is > 75%.
The matching figures for `CC(C)[C@@H](C(=O)N1C[C@H](O)C[C@H]1C(=O)N[C@@H](C)c1ccc(C#N)cc1)c1cc(N2CCC(CN3CC[C@H](Oc4cc(N5C6CCC5CN(c5cc(-c7ccccc7O)nnc5N)C6)ccn4)C(F)(F)C3)CC2)no1` [Compound 146, (2S,4R)-1-[(2R)-2-[3-(4-{[(4S)-4-[(4-{3-[3-amino-6-(2-hydroxyphenyl)pyridazin-4-yl]-3,8-diazabicyclo[3.2.1]octan-8-yl}pyridin-2-yl)oxy]-3,3-difluoropiperidin-1-yl]methyl}piperidin-1-yl)-1,2-oxazol-5-yl]-3-methylbutanoyl]-N-[(1S)-1-(4-cyanophenyl)ethyl]-4-hydroxypyrrolidine-2-carboxamide]: 10 to 30 nM and > 75%.
For `Cc1ncsc1-c1ccc([C@H](C)NC(=O)[C@@H]2C[C@@H](O)CN2C(=O)[C@@H](c2cc(N3CCC(CN4CCC5(CC4)CC(N4CCO[C@@H]([C@H](C)n6cc(C#Cc7cc(-c8ccccc8O)nnc7N)cn6)C4)C5)CC3)no2)C(C)C)cc1` [Compound 97, (2S,4R)-1-[(2R)-2-{3-[4-({2-[(2R)-2-[(1S)-1-(4-{2-[3-amino-6-(2-hydroxyphenyl)pyridazin-4-yl]ethynyl}-1H-pyrazol-1-yl)ethyl]morpholin-4-yl]-7-azaspiro[3.5]nonan-7-yl}methyl)piperidin-1-yl]-1,2-oxazol-5-yl}-3-methylbutanoyl]-4-hydroxy-N-[(1S)-1-[4-(4-methyl-1,3-thiazol-5-yl)phenyl]ethyl]pyrrolidine-2-carboxamide], the DC50 is < 2.5 nM and the Dmax was > 75%.
`CC(C)[C@H](C(=O)N1C[C@H](O)C[C@H]1C(=O)N[C@@H](C)c1ccc(C#N)cc1)c1cc(O[C@H]2C[C@H](C(C)(C)N3CCC(O[C@H]4C[C@H](Oc5cc(N6C7CCC6CN(c6cc(-c8ccccc8O)nnc6N)C7)ccn5)C4)CC3)C2)no1` [Compound 93, (2S,4R)-N-[(1S)-1-(4-cyanophenyl)ethyl]-4-hydroxy-1-[(2S)-3-methyl-2-{3-[(1r,3r)-3-(2-{4-[(1r,3r)-3-[(4-{3-[3-amino-6-(2-hydroxyphenyl)pyridazin-4-yl]-3,8-diazabicyclo[3.2.1]octan-8-yl}pyridin-2-yl)oxy]cyclobutoxy]piperidin-1-yl}propan-2-yl)cyclobutoxy]-1,2-oxazol-5-yl}butanoyl]pyrrolidine-2-carboxamide]: the DC50 was ≥ 30 nM.
As to `Cc1ncsc1-c1ccc([C@H](C)NC(=O)[C@@H]2C[C@@H](O)CN2C(=O)[C@@H](c2cc(N3CCC(CN4CCC(O[C@H]5C[C@H](N6CCC(C(C)n7ncc(-c8cc(-c9ccccc9O)nnc8N)c7F)CC6)C5)CC4)CC3)no2)C(C)C)cc1` (stereo partly drawn) [Compound 100, (2S,4R)-4-hydroxy-N-[(1S)-1-[4-(4-methyl-1,3-thiazol-5-yl)phenyl]ethyl]-1-[(2R)-3-methyl-2-{3-[4-({4-[(1r,3r)-3-[4-(1-{4-[3-amino-6-(2-hydroxyphenyl)pyridazin-4-yl]-5-fluoro-1H-pyrazol-1-yl}ethyl)piperidin-1-yl]cyclobutoxy]piperidin-1-yl}methyl)piperidin-1-yl]-1,2-oxazol-5-yl}butanoyl]pyrrolidine-2-carboxamide], the DC50 is < 2.5 nM and the Dmax is > 75%.
As to `Cc1ncsc1-c1ccc([C@H](C)NC(=O)[C@@H]2C[C@@H](O)CN2C(=O)[C@@H](c2cc(N3CCC(CN4CCC(O[C@H]5C[C@H](N6CCC7(CC6)CC(N6C8CCC6CN(c6cc(-c9ccccc9O)nnc6N)C8)C7)C5)CC4)CC3)no2)C(C)C)cc1` [Compound 44, (2S,4R)-4-hydroxy-N-[(1S)-1-[4-(4-methyl-1,3-thiazol-5-yl)phenyl]ethyl]-1-[(2R)-3-methyl-2-{3-[4-({4-[(1r,3r)-3-(2-{3-[3-amino-6-(2-hydroxyphenyl)pyridazin-4-yl]-3,8-diazabicyclo[3.2.1]octan-8-yl}-7-azaspiro[3.5]nonan-7-yl)cyclobutoxy]piperidin-1-yl}methyl)piperidin-1-yl]-1,2-oxazol-5-yl}butanoyl]pyrrolidine-2-carboxamide], the DC50 is < 2.5 nM and the Dmax was > 75%.
With `CC(C)[C@@H](C(=O)N1C[C@H](O)C[C@H]1C(=O)N[C@@H](C)c1ccc(-c2ccnn2C)cc1)c1cc(N2CCC(CN3CCC(O[C@H]4C[C@H](OC(=O)N5CCN(c6cc(-c7ccccc7O)nnc6N)CC5)C4)CC3)CC2)no1` [Compound 115, (1r,3r)-3-({1-[(1-{5-[(2R)-1-[(2S,4R)-4-hydroxy-2-{[(1S)-1-[4-(1-methyl-1H-pyrazol-5-yl)phenyl]ethyl]carbamoyl}pyrrolidin-1-yl]-3-methyl-1-oxobutan-2-yl]-1,2-oxazol-3-yl}piperidin-4-yl)methyl]piperidin-4-yl}oxy)cyclobutyl 4-[3-amino-6-(2-hydroxyphenyl)pyridazin-4-yl]piperazine-1-carboxylate], the DC50 was ≥ 30 nM.
Turning to `Cc1ncsc1-c1ccc([C@H](C)NC(=O)[C@@H]2C[C@@H](O)CN2C(=O)[C@@H](c2cc(OCCN3CCC(OC(=O)N4CCN(c5cc(-c6ccccc6O)nnc5N)CC4)CC3)no2)C(C)C)cc1` [Compound 64, 1-[2-({5-[(2R)-1-[(2S,4R)-4-hydroxy-2-{[(1S)-1-[4-(4-methyl-1,3-thiazol-5-yl)phenyl]ethyl]carbamoyl}pyrrolidin-1-yl]-3-methyl-1-oxobutan-2-yl]-1,2-oxazol-3-yl}oxy)ethyl]piperidin-4-yl 4-[3-amino-6-(2-hydroxyphenyl)pyridazin-4-yl]piperazine-1-carboxylate], the DC50 lay in the range of 2.5 to 10 nM and the maximal degradation (Dmax) is > 75%.

The values are drawn from patent US20250059198A1, “BRM DEGRADING COMPOUNDS AND ASSOCIATED METHODS OF USE” (Arvinas Operations, Inc., priority 2021, published 2025).
